Measurements published in patent publication US8394848B2, “Compounds that modulate intracellular calcium” (Calcimedica, Inc., priority 2008, dated 2013).

Tests used:
[1] = target: STIM1 and Orai1 in HEK293 cells (Homo sapiens, UniProt Q96D31); settings: STIM1 and Orai1 co-expression; cited from earlier work
[2] = target: T1, recombinant human STIM1 and Orai1 (HEK-293 stable cells; JR251) (Homo sapiens, UniProt Q96D31); test: Fluorescence-based assay of store-operated calcium entry in Orai1/STIM1 stable cells; type: cell-based; settings: 50% inhibition of Peak-Basal signal
T1 construct: c-myc (C); expressed in transfected cells
Procedure: A. Fluorescence-Based Assay of Store-Operated Calcium Entry in Orai1/STIM1 Stable Cells.
Cells stably expressing recombinant human STIM1 and Orai1 were generated by transfecting a human Orai1 expression plasmid (pcDNA3.1-Orai1-cmyc) into HEK-293 cells stably overexpressing human STIM1 (Roos et al. 2005 JCB 169(3): 435-445). Colonies of cells stably expressing both STIM1 and Orai1 proteins were selected and then subcloned by limiting dilution. Cells were cultured at 37° C./6% CO2 in complete medium with 10% FBS and appropriate selection markers.
The day prior to performing the assay Orai1/STIM1 stable cells were plated in 50 μL of complete medium at 90-95% confluence in a 384 well plate. Cells were grown at 37° C./6% CO2 overnight. On the day of the assay, 1.5 μM fluo-4-AM (Invitrogen) in complete medium was added to the cells, which were then incubated for 1 hour at RT. Cells were washed once in Ca^2+-free HBSS (Hank's buffered saline solution) and 35 μl of Ca^2+-free HBSS was added to each well. Test compounds were added to wells in a 10 μL Ca^2+-free HBSS solution, prepared at 4.5× the desired final concentration, and incubated for 30 minutes at RT. The initial baseline fluorescence signal was then measured with a FLIPR^384 (Molecular Devices) plate reader. Calcium entry was initiated by adding 5 μl of 10×CaCl2 (10 mM) in HBSS, and changes in cellular fluorescence were measured with the FLIPR^384 plate reader. In each well, the magnitude of the fluorescence signal as a result of calcium entry into the cell was determined by calculating the difference between the peak fluorescence signal measured after calcium addition and the initial baseline fluorescence signal (designated Peak-Basal). IC50 values were typically calculated as the concentration that inhibited 50% of the Peak-Basal signal (Table A).

RBL-2H3 cells = test: Fluorescence-based assay of store-operated calcium entry in RBL-2H3 cells; type: cell-based; settings: Rattus norvegicus, 50% inhibition of Upslope, thapsigargin
Procedure: B. Fluorescence-Based Assay of Store-Operated Calcium Entry in RBL-2H3Cells.
RBL-2H3 cells were obtained from ATCC and maintained in complete medium with 10% FBS at 37° C./6% CO2.
The day prior to performing the assay, RBL-2H3 cells are plated in 50 μL of complete medium in a 384 well plate. Cells are grown at 37° C./6% CO2 overnight and grow to 50-60% confluence by the next day. On the assay day, 1.5 μM Fluo-4-AM dye (Invitrogen) in complete medium is added and incubated for 1 hour at RT. Cells are washed twice in Ca^2+-free HBSS buffer and 35 μL Ca^2+-free HBSS buffer is added to each well. 10 μL of a test compound prepared in a Ca^2+-free HBSS solution at 4.5× of the desired concentration is added to a well and incubated for 5 minutes at RT. 10 μL of thapsigargin prepared in a Ca^2+-free HBSS solution at 5.5× of the desired concentration (5.5 uM) is added to each well and incubated for an additional 25 minutes. The initial baseline fluorescence signal is measured with a FLIPR^384 (Molecular Devices) plate reader. 5 μL of 12× calcium in HBSS (12 mM) is added and changes in cellular fluorescence are measured with the FLIPR^384 plate reader. In each well, the change in the fluorescent signal as a function of time due to calcium entry into the cell is determined by calculating the difference between the fluorescent signal measured 7 seconds after calcium addition and the initial baseline fluorescence signal at time zero (t=0). This parameter is designated Upslope. The IC50 value is calculated as the concentration at which 50% of the Upslope is inhibited.

Jurkat cells = settings: cited from earlier work

T1 sequence (Q96D31 whole entry): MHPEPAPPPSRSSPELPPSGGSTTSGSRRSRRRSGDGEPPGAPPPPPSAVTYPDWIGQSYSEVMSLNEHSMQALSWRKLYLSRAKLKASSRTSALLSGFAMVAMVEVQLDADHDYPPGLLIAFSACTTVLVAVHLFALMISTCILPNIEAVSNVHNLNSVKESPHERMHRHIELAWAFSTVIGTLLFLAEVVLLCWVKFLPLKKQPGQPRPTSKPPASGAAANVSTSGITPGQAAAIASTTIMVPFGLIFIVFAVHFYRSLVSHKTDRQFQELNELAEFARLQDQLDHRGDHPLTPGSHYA
Chain of STIM1 and Orai1 in HEK293 cells (Q96D31 whole entry): as above

| IC50 [2] | IC50 (RBL-2H3 cells) | Compound | block of store-dependent Ca2+ entry [1] | inhibition of SOCE (Jurkat cells) | inhibition of proliferation (Jurkat cells) |
| --- | --- | --- | --- | --- | --- |
| – | – | NCCOB(c1ccccc1)c1ccccc1 [2-aminoethoxydiphenylborate] | completely blocked | – | – |
| 1 to 10 µM | ≤ 0.5 µM | O=C(Nc1scc(-c2cc3cccc(O)c3o2)c1C(=O)O)c1cc2cccc(O)c2o1 [AB] | – | – | – |
| 1 to 10 µM | 1 to 10 µM | Cc1nnsc1C(=O)Nc1scc(-c2ccc(Br)cc2)c1C(=O)O [A] | – | – | – |
| – | – | Cc1nnsc1C(=O)Nc1ccc(-n2nc(C(F)(F)F)cc2C(F)(F)F)cc1 [BTP-2] | – | inhibits | inhibits |
| ≤ 0.5 µM | ≤ 0.5 µM | O=C(Nc1scc(-c2ccc(Br)cc2)c1C(=O)O)c1nc2cccc(F)c2o1 [B] | – | – | – |
| ≤ 0.5 µM | ≤ 0.5 µM | O=C(Nc1scc(-c2ccc(Br)cc2)c1C(=O)O)c1nc2c(F)cccc2o1 [C] | – | – | – |
| ≤ 0.5 µM | ≤ 0.5 µM | O=C(Nc1scc(-c2ccc(Br)cc2)c1C(=O)O)c1cc2ccccn2n1 [Compound I] | – | – | – |
| ≤ 0.5 µM | ≤ 0.5 µM | O=C(O)c1c(-c2ccc(Cl)cc2)csc1NC(=O)C(Cl)Cc1ccccc1 (centres unmarked) [D] | – | – | – |
| ≤ 0.5 µM | ≤ 0.5 µM | CC(Cc1ccccc1)C(=O)Nc1scc(-c2ccc(Br)cc2)c1C(=O)O (centres unmarked) [E] | – | – | – |
| ≤ 0.5 µM | ≤ 0.5 µM | Cc1ccc(-c2csc(NC(=O)c3cnc4ccccc4n3)c2C(=O)O)c(F)c1F [F] | – | – | – |
| ≤ 0.5 µM | ≤ 0.5 µM | O=C(Nc1scc(-c2ccc(Cl)cc2)c1C(=O)O)c1nc2ccccc2s1 [G] | – | – | – |
| ≤ 0.5 µM | ≤ 0.5 µM | COc1cc(C)c(-c2csc(NC(=O)c3cc4ccccc4o3)c2C(=O)O)cc1C [H] | – | – | – |
| ≤ 0.5 µM | ≤ 0.5 µM | O=C(Nc1scc(-c2ccc(Cl)cc2)c1C(=O)O)c1cc2sccc2s1 [J] | – | – | – |
| ≤ 0.5 µM | ≤ 0.5 µM | O=C(O)c1c(-c2ccc(Cl)cc2)csc1NC(=O)C1CCc2ccccc2C1 (centres unmarked) [K] | – | – | – |
| ≤ 0.5 µM | ≤ 0.5 µM | COc1cc(C)c(-c2csc(NC(=O)c3cc4ccccc4o3)c2C(=O)O)c(C)c1 [N] | – | – | – |
| ≤ 0.5 µM | ≤ 0.5 µM | O=C(Nc1scc(-c2ccc(Cl)cc2)c1C(=O)O)c1cc2ccccn2n1 [O] | – | – | – |
| ≤ 0.5 µM | ≤ 0.5 µM | O=C(Nc1scc(-c2ccc(Cl)cc2)c1C(=O)O)c1cnc2ccccc2n1 [P] | – | – | – |
| ≤ 0.5 µM | ≤ 0.5 µM | O=C(CCc1cccs1)Nc1scc(-c2ccc(Cl)cc2)c1C(=O)O [R] | – | – | – |
| ≤ 0.5 µM | ≤ 0.5 µM | O=C(Nc1scc(-c2ccc(Cl)cc2)c1C(=O)O)c1ccc([N+](=O)[O-])o1 [V] | – | – | – |
| ≤ 0.5 µM | ≤ 0.5 µM | O=C(Nc1scc(-c2ccc(Cl)cc2)c1C(=O)O)c1nc(C2CC2)cs1 [W] | – | – | – |
| ≤ 0.5 µM | ≤ 0.5 µM | O=C(Nc1scc(-c2ccc(Cl)cc2)c1C(=O)O)c1cc2nccnc2s1 [X] | – | – | – |
